We go through four compounds from US20080299589A1, “Methods and Materials for Examining the P13k/Akt Pathway in Gliomas and Prostate Cancers” (The Regents of the University of California, priority 2003, published 2008).

“Also recorded” adds a separate entry of the source.

One assay relates to LNCaP cells. The assay can be described thus: Immunostaining of formalin fixed, paraffin embedded LNCaP cell pellets with phospho-specific antibodies after inhibitor treatment. Conditions: 18 hours, vs vehicle. Type of assay: cell-based. The method, then: (§1) Cells (LNCaP, DU 145, HT 129) were grown in culture (DMEM supplemented with 10% FBS, L-Glutamine, Penicillin and Streptomycin) and exposed to vehicle, the PI3K inhibitor LY294002 (30 μM), the mTOR inhibitor, CCI-779 (20 nM) for 18 hours or the MEK inhibitor, UO126 (20 μM) combined with 100 ng/ml of EGF for 20 minutes. Cell pellets were prepared, formalin fixed and embedded in paraffin, then cut for immunohistochemical staining with phospho-AKT, -S6, -FKHR and -ERK antibodies. We performed antigen retrieval with a 10 mM sodium citrate buffer (pH 6.0) for 30 minutes in a pressure cooker. Peroxidase activity was quenched with 3% hydrogen peroxide in water. Sections were stained overnight at 4° C. with monoclonal antibodies to PTEN at 1:300 (clone 6H2.1; Cascade Bioscience, Winchester, Mass. This antibody recognizes a 99 amino acid epitope at the C-terminus of PTEN) and polyclonal phosphorylation-specific antibodies to p-AKT (Set 473), p-FKHR which recognizes phosphorylated forms of the forkhead family of transcription factors FKHR (FOXO 1), FKHRL1 (FOXO 3a) and AFX (FOXO 4), p-S6 Ribosomal protein (Set 235/236), p-ERK (Thr-202/Tyr-204) at 1:100 (Cell Signaling Technology, Beverly, Mass.). This was followed by application of biotinylated secondary antibodies (Vector) at 1:1000 dilution for 30 minutes and Avidin-biotin complex (Elite ABC; Vector). Negative control slides received normal mouse serum (DAKO) as the primary antibody. Diaminobenzidine tetrahydrochloride (DAB) was used as the enzyme substrate to visualize specific antibody localization for PTEN and p-AKT; Vector NovaRed (Vector) for p-FKHR, p-S6 and p-ERK. Slides were counterstained with Harris hematoxylin. For immunofluorescence assays, post fixation in paraformaldehyde, the cells were probed with Total AKT (1:50) and p-AKT (1:250); the secondary antibodies Alexa Flour anti-rabbit and anti-mouse (1:1000) [Molecular Probes, Eugene, Oreg.]. Following incubation, images were captured on a Nikon fluorescence microscope and then overlaid using Adobe Photoshop software. […]

A further assay has as its system HT129 cells. Put plainly: p-ERK staining in EGF-induced HT129 cells. Type of assay: cell-based. The method, then:
as §1, with “This was followed by application of biotinylated secondary antibodies (Vector) at 1:1000 dilution for 30 minutes and Avidin-biotin complex (Elite ABC; Vector). Negative control slides received normal mouse serum (DAKO) as the primary antibody. Diaminobenzidine tetrahydrochloride (DAB) was used as the enzyme substrate to visualize specific antibody localization for PTEN and p-AKT; Vector NovaRed (Vector) for p-FKHR, p-S6 and p-ERK. Slides were counterstained with Harris hematoxylin. For immunofluorescence assays, post fixation in paraformaldehyde, the cells were probed with Total AKT (1:50) and p-AKT (1:250); the secondary antibodies Alexa Flour anti-rabbit and anti-mouse (1:1000) [Molecular Probes, Eugene, Oreg.].” left out

A further assay has as its system SKMG-3 cells. Conditions: unstimulated SKMG-3 cells, minimal growth conditions; cited from earlier work.
Assay [1] concerns PTEN deficient prostate cancer cell lines. Conditions: PTEN deficient vs wild type prostate cancer cell lines; cited from earlier work.
Assay [2] relates to PTEN deficient prostate cancer xenografts. Conditions: PTEN deficient vs wild type prostate cancer xenografts; cited from earlier work.

Consider `O=c1cc(N2CCOCC2)oc2c(-c3ccccc3)cccc12` [LY294002], for which the “staining intensity of p-ERK” value with LNCaP cells (LY294002 30 μM) is “no effect”. Further, the p-ERK staining result in the assay on HT129 cells (HT129 cells induced with EGF 100 ng/ml, LY294002) was “lack of inhibition”.
Regarding `N#CC(=C(/N)Sc1ccccc1N)/C(C#N)=C(/N)Sc1ccccc1N` [UO-126], the p-ERK staining entry in the assay on HT129 cells (HT129 cells induced with EGF 100 ng/ml for 20 minutes, UO-126 20 μM for 20 minutes) was “decreased staining; also recorded: reduced”.
Take `CNc1cc2c(Nc3cccc(Br)c3)ncnc2cn1` [PD158780]: in the assay on SKMG-3 cells, the “constitutive phosphorylation of Erk” value is listed as “reduces the constitutive phosphorylation” and the “constitutive phosphorylation of the receptor (EGFR)” value is on record as “reduces the constitutive phosphorylation”.
As for `CO[C@H]1C[C@@H]2CC[C@@H](C)[C@@](O)(O2)C(=O)C(=O)N2CCCC[C@H]2C(=O)O[C@H]([C@H](C)C[C@@H]2CC[C@@H](OC(=O)C(C)(CO)CO)[C@H](OC)C2)CC(=O)[C@H](C)/C=C(\C)[C@@H](O)[C@@H](OC)C(=O)[C@H](C)C[C@H](C)/C=C/C=C/C=C/1C` [CCI-779], in the assay with LNCaP cells (CCI-779 20 nM), the “staining intensity of p-AKT” value is recorded as “no effect” and the “staining intensity of p-S6 (S6 phosphorylation)” value was “downregulation of S6 phosphorylation; also recorded: decreased staining intensity”. In addition, the “sensitivity to pharmacologic inhibition of mTOR compared to wild type counterparts” value in assay [1] is listed as “more sensitive”. In addition, in assay [2], the “sensitivity to pharmacologic inhibition of mTOR compared to wild type counterparts” value was “more sensitive”.
